Source: ChEMBL document CHEMBL5360545, “Multitargeted drug design strategy for discovery of short-peptide-based HIV-1 entry inhibitors with high potency” (Eur J Med Chem, 2023)
Side chains are listed from the residue outwards. Peptide text beside a SMILES is read from it. * marks the point of attachment. PEG24 = NCCOCCOCCOCCOCCOCCOCCOCCOCCOCCOCCOCCOCCOCCOCCOCCOCCOCCOCCOCCOCCOCCOCCOCCOCCC(=O)O; X1 = CC(=O)N1CCC(C(=O)N(CCCN2CCC(Cc3ccc(C(=O)*)cc3)CC2)c2ccc(C)c(Cl)c2)CC1; PEG8 = NCCOCCOCCOCCOCCOCCOCCOCCOCCC(=O)O

Legend:
[1] = tested on: Human immunodeficiency virus 1; assay: Antiviral activity against HIV-1 Bal-R5 infected in human CEMx174 5.25M7 cells assessed as reduction in p24 antigen level measured after 4 days by ELISA; format: functional, organism-based; settings: Human immunodeficiency virus 1, Bal-R5, CEMx174 5.25M7, 96 h
[2] = tested on: Human immunodeficiency virus 1; assay: Antiviral activity against HIV-1 clinical isolate X4-89BZ167 infected in human CEMx174 5.25M7 cells assessed as reduction in p24 antigen level measured after 4 days by ELISA; format: functional, organism-based; settings: Human immunodeficiency virus 1, clinical isolate X4-89BZ167, CEMx174 5.25M7, 96 h
[3] = Proteolytic stability in rat liver assessed as parent compound remaining incubated for 4 hrs by RP-UHPLC analysis; format: ADME, tissue-based; settings: read-out: Stability
[4] = tested on: Human immunodeficiency virus 1; assay: Antiviral activity against HIV-1 clinical isolate 97 TH-NP1525 infected in human CEMx174 5.25M7 cells assessed as reduction in p24 antigen level measured after 4 days by ELISA; format: functional, organism-based; settings: Human immunodeficiency virus 1, clinical isolate 97 TH-NP1525, CEMx174 5.25M7, 96 h
[5] = tested on: Human immunodeficiency virus 1; assay: Antiviral activity against HIV-1 clinical isolate X4-92UG024 infected in human CEMx174 5.25M7 cells assessed as reduction in p24 antigen level measured after 4 days by ELISA; format: functional, organism-based; settings: Human immunodeficiency virus 1, clinical isolate X4-92UG024, CEMx174 5.25M7, 96 h
[6] = target: Envelope glycoprotein gp160 (Human immunodeficiency virus 1) (UniProt Q72502); assay: Binding affinity to HIV1 GP41 using GP41 NHR derived N39 peptide assessed as change in enthalpy by isothermal titration calorimetry
[7] = tested on: Human immunodeficiency virus 1; assay: Antiviral activity against HIV-1 clinical isolate R5-J32228M4 infected in human CEMx174 5.25M7 cells assessed as reduction in p24 antigen level measured after 4 days by ELISA; format: functional, organism-based; settings: Human immunodeficiency virus 1, clinical isolate R5-J32228M4, CEMx174 5.25M7, 96 h
[8] = tested on: Human immunodeficiency virus 1; assay: Antiviral activity against HIV-1 clinical isolate R5-91US-4 infected in human CEMx174 5.25M7 cells assessed as reduction in p24 antigen level measured after 4 days by ELISA; format: functional, organism-based; settings: Human immunodeficiency virus 1, clinical isolate R5-91US-4, CEMx174 5.25M7, 96 h
[9] = target: C-C chemokine receptor type 5 (Homo sapiens, UniProt P51681); assay: Antagonist activity at CCR5 (unknown origin) expressed in HEK293 cells co-expressing Galpha16 assessed as intracellular calcium change incubated for 60 mins by Fluo-4 AM calcium flux based FLIPR assay; format: functional, cell-based
C-C chemokine receptor type 5, sequence (P51681 whole entry): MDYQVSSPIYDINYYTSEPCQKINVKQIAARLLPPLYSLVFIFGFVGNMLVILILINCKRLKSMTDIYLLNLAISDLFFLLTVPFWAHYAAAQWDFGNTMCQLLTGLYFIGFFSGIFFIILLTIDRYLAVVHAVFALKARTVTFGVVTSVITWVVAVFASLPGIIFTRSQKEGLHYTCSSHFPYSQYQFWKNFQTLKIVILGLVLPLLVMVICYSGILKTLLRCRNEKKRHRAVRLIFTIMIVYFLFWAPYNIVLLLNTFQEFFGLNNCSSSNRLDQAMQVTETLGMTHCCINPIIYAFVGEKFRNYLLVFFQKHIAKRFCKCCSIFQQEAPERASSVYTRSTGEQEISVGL

[10] = target: Envelope glycoprotein gp160 (Human immunodeficiency virus 1) (UniProt Q72502); assay: Binding affinity to HIV1 GP41 using GP41 NHR derived N39 peptide assessed as binding constant by isothermal titration calorimetry
[11] = target: Envelope glycoprotein gp160 (Human immunodeficiency virus 1) (UniProt Q72502); assay: Binding affinity to HIV1 GP41 using GP41 NHR derived N39 peptide assessed as change in entropy by isothermal titration calorimetry

| Compound | EC50 [1] [nM] | EC50 [2] [nM] | remaining at 4 h [3] [%] | EC50 [4] [nM] | EC50 [5] [nM] | deltaH [6] | EC50 [7] [nM] | EC50 [8] [nM] | IC50 [9] [nM] | K [10] | deltaS [11] [cal/mol/deg] |
| --- | --- | --- | --- | --- | --- | --- | --- | --- | --- | --- | --- |
| CC[C@H](C)[C@H](NC(=O)[C@H](CCCCN)NC(=O)[C@H](CCC(N)=O)NC(=O)[C@H](CCC(=O)O)NC(=O)[C@H](Cc1c[nH]c2ccccc12)NC(C)=O)C(=O)N[C@@H](CCC(=O)O)C(=O)N[C@@H](CCC(=O)O)C(=O)N[C@@H](CC(C)C)C(=O)N[C@@H](CC(C)C)C(=O)N[C@@H](CCCCN)C(=O)N[C@@H](CCCCN)C(=O)N[C@@H](C)C(=O)N[C@@H](CCC(=O)O)C(=O)N[C@@H](CCC(=O)O)C(=O)N[C@@H](CCC(N)=O)C(=O)N[C@@H](CCC(N)=O)C(=O)N[C@@H](CCCCN)C(=O)N[C@@H](CCCCN)C(=O)N[C@@H](CC(N)=O)C(=O)N[C@@H](CCC(=O)O)C(=O)N[C@@H](CCC(=O)O)C(=O)N[C@@H](CCC(=O)O)C(=O)N[C@@H](CC(C)C)C(=O)N[C@@H](CCCCN)C(=O)N[C@@H](CCCCN)C(=O)N[C@@H](CC(C)C)C(=O)N[C@@H](CCC(=O)O)C(=O)N[C@@H](CCCCN)C(=O)N[C@@H](CCCCNC(=O)CCOCCOCCOCCOCCOCCOCCOCCOCCOCCOCCOCCOCCOCCOCCOCCOCCOCCOCCOCCOCCOCCOCCOCCOCCNC(=O)c1ccc(CC2CCN(CCCN(C(=O)C3CCN(C(C)=O)CC3)c3ccc(C)c(Cl)c3)CC2)cc1)C(N)=O (Ac-WEQKIEELLKKAEEQQKKNEEELKKLEKK([PEG24-X1])-NH2) | 0.12 | – | – | – | – | – | – | – | – | – | – |
| enfuvirtide | – | 48.2 | 45 | 2.54 | 24.6 | – | – | – | – | – | – |
| CC[C@H](C)[C@H](NC(=O)[C@H](CCCCN)NC(=O)[C@H](CCC(N)=O)NC(=O)[C@H](CCC(=O)O)NC(=O)[C@H](Cc1c[nH]c2ccccc12)NC(C)=O)C(=O)N[C@@H](CCC(=O)O)C(=O)N[C@@H](CCC(=O)O)C(=O)N[C@@H](CC(C)C)C(=O)N[C@@H](CC(C)C)C(=O)N[C@@H](CCCCN)C(=O)N[C@@H](CCCCN)C(=O)N[C@@H](C)C(=O)N[C@@H](CCC(=O)O)C(=O)N[C@@H](CCC(=O)O)C(=O)N[C@@H](CCC(N)=O)C(=O)N[C@@H](CCC(N)=O)C(=O)N[C@@H](CCCCN)C(=O)N[C@@H](CCCCN)C(=O)N[C@@H](CC(N)=O)C(=O)N[C@@H](CCC(=O)O)C(=O)N[C@@H](CCC(=O)O)C(=O)N[C@@H](CCC(=O)O)C(=O)N[C@@H](CC(C)C)C(=O)N[C@@H](CCCCN)C(=O)N[C@@H](CCCCN)C(=O)N[C@@H](CC(C)C)C(=O)N[C@@H](CCC(=O)O)C(=O)N[C@@H](CCCCN)C(=O)N[C@@H](CCCCNC(=O)CCOCCOCCOCCOCCOCCOCCOCCOCCNC(=O)c1ccc(CC2CCN(CCCN(C(=O)C3CCN(C(C)=O)CC3)c3ccc(C)c(Cl)c3)CC2)cc1)C(N)=O (Ac-WEQKIEELLKKAEEQQKKNEEELKKLEKK([PEG8-X1])-NH2) | 1.52 | – | – | – | – | – | – | – | – | – | – |
| Ac-WEQKIEELLKKAEEQQKKNEEELKKLEK-NH2 | 2.45 | – | – | – | – | – | – | – | – | – | – |
| Ac-IEELIRAAQEQQRKNEEALREL-NH2 | 4.47 | 63.1 | – | 3.7 | 76.5 | -1 10^4cal/mol | > 250 | 275 | > 10000 | 8.29 10^5/M | -6.92 |
| CC(=O)N1CCC(C(=O)N(CCCN2CCC(Cc3ccc(C(N)=O)cc3)CC2)c2ccc(C)c(Cl)c2)CC1 | 9.03 | > 300 | – | > 300 | > 300 | – | 161 | 12.1 | 0.83 | – | – |
